Experimental findings from patent publication US8053441B2, “Pyrazolylquinazolinones as potassium channel openers” (Janssen Pharmaceutica N.V., priority 2006, dated 2011) are described below.

In this assay the target is T1, KATP channels (Homo sapiens, UniProt O60706+Q14654).
T1 construct: TE671 human medulloblastoma cells were obtained from ATCC; host or cells: TE671 human medulloblastoma cells
The experiment in a line: Potassium Channel Assay (FLIPR membrane potential). Type of assay: cell-based. On the set-up: key: A compound was designated as active if it produced greater than or equal to 10% response at 30 μM; A compound was designated as inactive if it produced less than 10% response at 30 μM. The settings on record: TE671 human medulloblastoma cells, 30 μM, Membrane Potential Assay Dye. How it is done:
TE671 human medulloblastoma cells were obtained from ATCC and grown in Dulbecco's modified Eagle's medium (DMEM) supplemented with 10% fetal bovine serum, 100 U/ml penicillin and 100 U/ml streptomycine.
The day before testing, the cells were plated in black 96-well plates at 50K/well. On the day of testing, the growth media was removed, then 100 μl of FLIPR buffer (20 mM HEPES, 120 mM NaCl, 2 mM KCl, 2 mM CaCl2, 1 mM MgCl2, 5 mM Glucose) and 100 μl of Membrane Potential Assay Dye (Molecular Devices) dissolved in FLIPR buffer were added to each well. The cells were incubated at room temperature for 15 to 30 min.
The effect of test compounds on KATP channels were evaluated on a fluorometric imaging plate reader (FLIPR, Molecular Devices) at room temperature. After a baseline period, 50 μl of 5× stock solution of test compound prepared in FLIPR buffer was added and fluorescent change was monitored for 3 minutes. After this reading, glyburide, a KATP channel blocker, was added to a final concentration of 5 μM to check the specificity of the test compound as a KATP channel openers. Hyperpolarization resulting from KATP channel opening was observed as a decrease in fluorescent intensity.
Representative compounds of the present invention were tested according to the procedure described above, with results as listed in Table 2 below. Test compound activity was determined as the percent. A compound was designated as active if it produced greater than or equal to 10% response at 30 μM.

T1 sequence (O60706 1-1549 isoform O60706-2): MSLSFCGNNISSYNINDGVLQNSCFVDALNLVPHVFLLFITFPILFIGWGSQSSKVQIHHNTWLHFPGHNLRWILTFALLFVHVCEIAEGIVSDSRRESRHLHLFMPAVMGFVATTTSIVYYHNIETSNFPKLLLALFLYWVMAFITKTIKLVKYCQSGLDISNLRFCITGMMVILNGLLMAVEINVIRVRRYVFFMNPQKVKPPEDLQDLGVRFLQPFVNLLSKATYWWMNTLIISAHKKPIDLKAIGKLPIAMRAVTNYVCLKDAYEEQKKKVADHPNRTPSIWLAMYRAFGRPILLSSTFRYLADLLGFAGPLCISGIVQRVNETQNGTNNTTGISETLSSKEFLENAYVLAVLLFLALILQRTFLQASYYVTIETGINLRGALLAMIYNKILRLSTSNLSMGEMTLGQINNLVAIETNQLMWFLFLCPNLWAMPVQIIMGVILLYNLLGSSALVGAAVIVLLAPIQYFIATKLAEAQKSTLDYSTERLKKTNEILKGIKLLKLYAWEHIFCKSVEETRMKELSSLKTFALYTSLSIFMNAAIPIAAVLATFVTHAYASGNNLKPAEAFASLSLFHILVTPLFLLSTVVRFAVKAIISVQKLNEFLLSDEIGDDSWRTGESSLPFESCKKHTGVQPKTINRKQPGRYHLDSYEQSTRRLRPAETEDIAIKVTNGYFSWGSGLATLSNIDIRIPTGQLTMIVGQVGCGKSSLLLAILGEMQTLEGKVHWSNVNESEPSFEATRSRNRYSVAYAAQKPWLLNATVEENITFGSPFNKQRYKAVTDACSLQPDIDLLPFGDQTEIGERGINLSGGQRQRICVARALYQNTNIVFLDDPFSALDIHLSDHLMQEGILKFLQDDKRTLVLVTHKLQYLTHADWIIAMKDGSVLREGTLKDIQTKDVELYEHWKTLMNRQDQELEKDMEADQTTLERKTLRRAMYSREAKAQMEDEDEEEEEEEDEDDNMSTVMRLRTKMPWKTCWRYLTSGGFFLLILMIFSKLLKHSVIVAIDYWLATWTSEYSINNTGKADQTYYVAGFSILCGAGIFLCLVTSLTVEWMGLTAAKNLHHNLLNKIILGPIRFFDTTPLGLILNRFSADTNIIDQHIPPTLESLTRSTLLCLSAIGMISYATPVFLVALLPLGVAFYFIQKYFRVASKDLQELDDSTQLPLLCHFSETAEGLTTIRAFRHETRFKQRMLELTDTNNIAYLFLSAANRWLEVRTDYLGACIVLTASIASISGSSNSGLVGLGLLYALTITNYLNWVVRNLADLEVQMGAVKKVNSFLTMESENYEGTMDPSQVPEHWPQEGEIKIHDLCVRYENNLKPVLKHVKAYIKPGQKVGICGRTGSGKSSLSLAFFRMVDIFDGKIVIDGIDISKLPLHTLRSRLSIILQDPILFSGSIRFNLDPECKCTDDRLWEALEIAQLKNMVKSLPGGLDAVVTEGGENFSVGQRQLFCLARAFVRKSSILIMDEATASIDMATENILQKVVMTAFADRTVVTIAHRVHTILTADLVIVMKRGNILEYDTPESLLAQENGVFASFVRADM
T1 sequence (Q14654 whole entry): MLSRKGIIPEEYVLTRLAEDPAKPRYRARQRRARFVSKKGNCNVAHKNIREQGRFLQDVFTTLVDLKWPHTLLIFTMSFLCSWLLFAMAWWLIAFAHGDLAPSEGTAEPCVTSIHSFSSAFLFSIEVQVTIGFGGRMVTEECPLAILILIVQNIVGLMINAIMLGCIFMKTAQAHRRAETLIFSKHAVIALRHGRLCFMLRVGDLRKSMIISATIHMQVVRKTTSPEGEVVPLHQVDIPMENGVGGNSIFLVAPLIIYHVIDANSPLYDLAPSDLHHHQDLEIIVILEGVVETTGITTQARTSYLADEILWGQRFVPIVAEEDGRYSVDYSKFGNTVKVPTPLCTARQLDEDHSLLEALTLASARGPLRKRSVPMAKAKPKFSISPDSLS

On to `CCOC(=O)C1=NNC(C)(c2nc3ccc(Cl)cc3c(=O)[nH]2)C1` (stereo not shown) [compound 4, 5-(6-Chloro-4-oxo-3,4-dihydro-quinazolin-2-yl)-5-methyl-4,5-dihydro-1H-pyrazole-3-carboxylic acid ethyl ester], for which the response result was “active”.
For the compound `CC1(c2nc3cc(C(F)(F)F)ccc3c(=O)[nH]2)CC=NN1` (stereo not shown) [compound 3, 2-(3-Methyl-3,4-dihydro-2H-pyrazol-3-yl)-7-trifluoromethyl-3H-quinazolin-4-one], the response result was “active”.
With `CC1(c2nc3ccc(Cl)cc3c(=O)[nH]2)CC=NN1` (stereo not shown) [compound 1, 6-Chloro-2-(3-methyl-3,4-dihydro-2H-pyrazol-3-vi)-3H-quinazolin-4-one], the response result is listed as “active”.
On to `CC1(c2nc3ccc(Br)cc3c(=O)[nH]2)CC=NN1` (stereo not shown) [compound 2, 6-Bromo-2-(3-methyl-3,4-dihydro-2H-pyrazol-3-vi)-3H-quinazolin-4-one], for which the response entry was “active”.
